Results published in patent publication US5814612A, “Retinol derivatives and uses thereof” (priority 1992, dated 1998).
“Also recorded” adds a separate entry of the source. Like-named read-outs stand apart in the source and are kept apart here.

Key:
ERLD = experiment: Retinol metabolism, ERLD; format: in vitro ADME
Protocol: (§1) Legend: 2.5×10^6 cells were grown overnight in 5 ml RPMI/10% FBS. The FBS was preincubated at room temperature with 14.4 uCi [^3 H] retinol (NEN) for 4h. The cell pellet was washed twice with PBS. The retinoid were extracted according to MClean et al. 90 and separated on an analytical c18 reverse phase column according to FIG. 7. The DPM were determined using an on-line scintillation counter.

SKL3 = experiment: Retinol metabolism, SKL3; format: in vitro ADME, human
Protocol: as §1

Hela = experiment: Retinol metabolism, Hela; format: in vitro ADME, human
Protocol: as §1

SLA = experiment: Retinol metabolism, SLA; format: in vitro ADME, mouse
Protocol: as §1

[1] = cited from earlier work
26 mammalian cells = experiment: 3H retinol conversion to P3/14HRR in 26 mammalian cells; format: in vitro ADME; details: retinol bound to fetal calf serum
Protocol: The use of ^3 H retinol bound to fetal calf serum was used as an assay to test for P3 in other cell lines.
The use of ^3 H retinol bound to fetal calf serum was used as an assay to test for 14HRR in other cell lines.
as §1

CD4^+ T lymphocytes = experiment: Proliferation of anti-CD3 activated CD4+ T lymphocytes; format: cell-based, BALB/c mouse
Source text: Growth curves of lymph node T cells depleted of antigen-presenting cells (FIG. 17A) with and without 10^-6 M retinol at 2×10^5 and 5×10^4 cells/well. (FIG. 17B) Dose-responses elicited by different retinoids in cultures of lymph node T cells depleted of antigen-presenting cells. Also shown are the growth curves of CD4^+ (FIG. 17C) and CD8^+ T lymphocytes (FIG. 17D) in the presence of either retinol, 14HRR, human serum or in their absence.
T lymphocytes, purified as described, 5×10^4 /well, were activated with immobilized anti-CD3 antibody in ITLB medium. The indicated amounts of retinoids or human serum were added at initiation of cultures. […] 14HRR was added every 12 hours. DNA synthesis was measured by a 4 hour pulse with tritiated thymidine. SDs were ≤17%.
Mature T cells were obtained from pooled intestinal, axillary, inguinal and submandibular lymph nodes of 4 to 10-week-old BALB/c mice. To fractionate cells into CD4 and CD8 subsets and at the same time remove APC, a combination of adherence and complement lysis was used as follows:
The cell suspension in a volume of 2 ml was applied to a nylon wool column (40) (0.6 g of washed nylon fibers in the barrel of a 10 ml syringe) and incubated at 37° C. for 40 min. […] The success of the enrichment procedures was monitored cytofluorimetrically using FITC-conjugated anti-CD8 and PE-conjugated anti-CD4. […]

B lymphocytes = experiment: Activity in B lymphocytes; format: cell-based

CC1=C(/C=C/C(C)=C/C=C/C(C)=C/CO)C(C)(C)CCC1 [retinol, all-trans retinol]
Ester (% of taken up retinol) (ERLD): 20%
P3 (% of taken up retinol) (ERLD): 9%
Total cts. (ERLD): 2.8 × 10^5 cts.
Ester (% of taken up retinol) (SKL3): 24%
P3 (% of taken up retinol) (SKL3): 2%
Total cts. (SKL3): 1.6 × 10^5 cts.
Ester (% of taken up retinol) (Hela): 20%
P3 (% of taken up retinol) (Hela): 3%
Total cts. (Hela): 1.0 × 10^5 cts.
Ester (% of taken up retinol) (SLA): 9%
P3 (% of taken up retinol) (SLA): 3%
Total cts. (SLA): 6.1 × 10^5 cts.
half-life ([1]; serum-free cell culture (ref. 32)): < 24 h
half-life ([1]; serum-free tissue culture medium, estimated (ref. 32)): ~24 h
formation of P3/14HRR from 3H retinol (26 mammalian cells): radioactivity peak at the position where 14HRR normally elutes; also recorded: radioactivity peak at the position where P3 normally elutes

CC(C=CC=C(C)C(O)CO)=CC=C1C(C)=CCCC1(C)C (stereo not drawn) [14HRR, 14-hydroxy-4,14-retro-retinol]
response of CD4+ subset to anti-CD3 (CD4^+ T lymphocytes): responded to the activating signal
activity relative to all-trans retinol on a concentration basis (B lymphocytes; B cells): 10-30 fold
potency relative to retinol in preventing necrotic cell death (B lymphocytes; concentration basis): 20-40 times
